{
  "source": "patent US12569437B2",
  "about": "“Disease-site-specific liposomal formulation” (Osaka University, priority 2017, dated 2026)",
  "key": {"[1]": {"tested_on": "rat monocrotaline (MCT)-induced severe heart failure (pulmonary hypertension) model", "assay": "Survival rate in rat monocrotaline-induced pulmonary hypertension model", "assay_type": "in vivo", "conditions": "42 days after MCT", "from_the_text": "The produced Formulation 21 (ONO-1301Lipo formulation) as a test substance was intermittently administered intravenously once weekly to a rat monocrotaline (MCT)-induced severe heart failure (pulmonary hypertension) model from day 7 of the MCT administration, and the survival rate was compared with a group in which compound (A) (ONO-1301) was repeatedly orally administered; a group in which compound (A) was intermittently administered intravenously once weekly; and, as a positive control, a group in which an ET-1 antagonist (bosentan) was orally administered. In the control group, physiological saline (vehicle) was administered once weekly by intravenous administration.\nFor animals, Slc: Wistar male rats, 5 weeks old at the start of the test, and 66.4 to 90.8 g at arrival (Japan SLC, Inc.) were used. Monocrotaline (hereinafter referred to as “MCT”), lot No.: SLBG1999V (Sigma-Aldrich Corporation), was administered once subcutaneously at the back of the rats at a dose of 60 mg/kg. Six days after the MCT administration, the animals were divided into groups according to the weight stratification assignment method (Table 19)."}, "[2]": {"tested_on": "BLM pulmonary fibrosis model mice", "assay": "Survival rate in BLM pulmonary fibrosis model mice", "assay_type": "in vivo", "conditions": "day 6 to 28 after BLM", "procedure": "C57BL/6NCr female mice (7 weeks old) were anesthetized with sodium pentobarbital, and then intratracheally (intrapulmonary) administered with 20 μL of a bleomycin hydrochloride aqueous solution (BLM) twice (40 μL in total per animal). In a normal group (Normal), vehicle (physiological saline) was similarly intratracheally administered.\nFrom 6 days to 28 days after the BLM administration, the test substance was administered to compare the survival rates. As the test substances, compound (A) (ONO-1301) was repeatedly orally administration twice daily, compound (A) (ONO-1301) was intravenously administered once weekly, and compound (A) (ONO-1301) was intratracheally administered once weekly. Further, Formulation 25 (ONO-1301Lipo) was intravenously administered once weekly, and Formulation 25 (ONO-1301Lipo) was intratracheally administered once weekly to analyze the DDS effect of Formulation 25 (ONO-1301Lipo) by comparing the survival rates.\nFrom 6 days after the preparation of the lung injury model, the vehicle and compound (A) (3 mg/kg) were repeatedly orally administered twice daily for 23 days (the administration interval between morning and afternoon was 8 hours or more).\n(§1) The administration was performed 6 days after the preparation of the lung injury model; after that, tail vein intravenous administration was performed once weekly (4 times in total, i.e., 6, 13, 20, and 27 or 28 days after the preparation of the model).\nas §1, with “intratracheal” for “tail vein intravenous”, “model). In normal Group 9 (Normal), physiological saline was administered in a similar manner.” for “model).”"}, "[3]": {"tested_on": "spontaneous dilated cardiomyopathy (J2N-k) hamster model", "assay": "Left ventricular wall thickness and area in short-axis sections of removed heart", "assay_type": "in vivo", "conditions": "week 8; for Left ventricle wall thickness (mm) Anterior / Left ventricle wall thickness (mm) Lateral / Left ventricle wall thickness (mm) Posterior / Left ventricle wall thickness (mm) Septum: middle section", "procedure": "(§2) Dissection was performed as follows. After all of the blood was collected from the abdominal aorta, and the hamsters were euthanized under isoflurane anesthesia, the heart and lungs were removed and weighed. After the weights thereof were measured, the removed parts, including the left and right ventricles, were divided into three parts; i.e., apical, middle, and basal parts, at intervals of about 2 mm along the short axis.\nWhen removed, the heart, including the left and right ventricles, was divided into three parts; i.e., apical, middle, and basal parts, at intervals of about 2 mm along the short axis. Among them, one section of the middle part was photographed, and the wall thickness at the anterior, lateral, posterior, and septum parts, and the left ventricular area were measured using image-editing software. For the wall thickness of the left ventricle, image-editing software was used, the number of pixels in the scale area of 1 mm^2 on the photograph was obtained, and the outer diameter and inner diameter of the entire left ventricle wall were traced to obtain each number of pixels to thus calculate the left ventricular area by ((the number of pixels of the outer diameter−the number of pixels of the inner diameter)/1 mm^2). Thereafter, the wall thickness of each portion was measured.\nThe section was divided into three parts; i.e., apical, middle, and basal areas, at intervals of about 2 mm. Thereafter, using one section on the middle side, the wall thickness at the anterior, lateral, posterior, and septum parts, and the left ventricular area were measured. For the wall thickness of the left ventricle, image-editing software was used, the number of pixels in the scale area of 1 mm^2 on the photograph was obtained, and the outer diameter and inner diameter of the entire left ventricle wall were traced to obtain each number of pixels to thus calculate the left ventricular wall area by ((the number of pixels of the outer diameter−the number of pixels of the inner diameter)/1 mm^2). Thereafter, the wall thickness of each portion was measured."}, "[4]": {"assay": "Body weight and heart and lung weights in J2N-k hamsters", "assay_type": "in vivo, hamster", "conditions": "for Body weight (g) at dissection: week 8", "procedure": "as §2\nTables 26 and 27 show the body weight change at the time of grouping and at the time of dissection, and the weights of heart and lung at the time of dissection."}, "[5]": {"assay": "Body weight and heart weight in rat myocardial ischemia model", "assay_type": "in vivo", "procedure": "Dissection was performed after the completion of the echocardiography at day 14 after the administration of the test substance. For dissection, all of the blood was collected from the abdominal aorta, and the rats were euthanized under isoflurane anesthesia; thereafter, the heart was removed and weighed. After measuring the heart weight, the infarct area, including the left and right ventricles, was divided into three parts along the short axis."}, "[6]": {"conditions": "3.0 mg/kg intravenous once/2 weeks"}},
  "note": "Marks after values point to notes of the source that are not given here.",
  "data": [
    {"smiles": "O=C(O)COc1cccc2c1CCC=C2CCO/N=C(\\c1ccccc1)c1cccnc1", "note": "[Compound (A), ({5-[2-({[(1E)-phenyl(pyridin-3-yl)methylene]amino}oxy)ethyl]-7,8-dihydronaphthalen-1-yl}oxy)acetic acid]", "values": [
      {"measurement": "Survival rate (%)", "setting": "[1]; intravenous 1 mg/kg/week from day 7", "result": 20, "unit": "%"},
      {"measurement": "Survival rate (%)", "setting": "[1]; oral 3 mg/kg × twice/day from day 7", "result": "50* %"},
      {"measurement": "survival rate", "setting": "[2]; intratracheal 1 mg/kg once/week", "result": 20, "unit": "%"},
      {"measurement": "survival rate", "setting": "[2]; intravenous 3 mg/kg once/week", "result": 40, "unit": "%"},
      {"measurement": "survival rate", "setting": "[2]; oral 3 mg/kg twice/day", "result": 60, "unit": "%"},
      {"measurement": "Left ventricular area (Middle part) (mm^2)", "setting": "[3]; 3.0 mg/kg i.v. once/2 weeks", "result": "23.9 ± 4.5", "unit": "mm^2"},
      {"measurement": "Left ventricle wall thickness (mm) Anterior", "setting": "[3]; [6]", "result": "1.1 ± 0.6", "unit": "mm"},
      {"measurement": "Left ventricle wall thickness (mm) Lateral", "setting": "[3]; [6]", "result": "1.2 ± 0.3", "unit": "mm"},
      {"measurement": "Left ventricle wall thickness (mm) Posterior", "setting": "[3]; [6]", "result": "1.2 ± 0.2", "unit": "mm"},
      {"measurement": "Left ventricle wall thickness (mm) Septum", "setting": "[3]; [6]", "result": "1.0 ± 0.3", "unit": "mm"},
      {"measurement": "Left ventricle wall thickness (mm) Anterior", "setting": "[3]; 3.0 mg/kg p.o. twice/day", "result": "1.4 ± 0.5", "unit": "mm"},
      {"measurement": "Left ventricle wall thickness (mm) Lateral", "setting": "[3]; 3.0 mg/kg p.o. twice/day", "result": "1.5 ± 0.2", "unit": "mm"},
      {"measurement": "Left ventricle wall thickness (mm) Posterior", "setting": "[3]; 3.0 mg/kg p.o. twice/day", "result": "1.2 ± 0.4", "unit": "mm"},
      {"measurement": "Left ventricle wall thickness (mm) Septum", "setting": "[3]; 3.0 mg/kg p.o. twice/day", "result": "1.5 ± 0.3", "unit": "mm"},
      {"measurement": "Left ventricular area (Middle part) (mm^2)", "setting": "[3]; 3.0 mg/kg p.o. twice/day", "result": "26.4 ± 4.3", "unit": "mm^2"},
      {"measurement": "Body weight (g) at dissection", "setting": "[4]; 3.0 mg/kg i.v. once/2 weeks", "result": "144.4 ± 13.3", "unit": "g"},
      {"measurement": "Body weight (g) at dissection", "setting": "[4]; 3.0 mg/kg p.o. twice/day", "result": "128.6 ± 3.0", "unit": "g"},
      {"measurement": "Body weight (g) Before drug administration", "setting": "[4]; group 3.0 mg/kg i.v. once/2 weeks", "result": "128.7 ± 10.4", "unit": "g"},
      {"measurement": "Body weight (g) Before drug administration", "setting": "[4]; group 3.0 mg/kg p.o. twice/day", "result": "118.8 ± 9.6", "unit": "g"},
      {"measurement": "Body weight (g) At dissection", "setting": "[5]; 3.0 mg/kg single i.v., day 14", "result": "406.7 ± 37.4", "unit": "g"},
      {"measurement": "Body weight (g) Before drug administration", "setting": "[5]; group 3.0 mg/kg single i.v.", "result": "325.1 ± 22.3", "unit": "g"},
      {"measurement": "Body weight (g) Before preparation of AMI", "setting": "[5]; group 3.0 mg/kg single i.v.", "result": "339.7 ± 13.6", "unit": "g"}
    ]}
  ]
}
